Results on 1 substance are retold here after patent US10426850B2, “Collagen mimetic peptides for targeting collagen strands for in vitro and in vivo imaging and therapeutic use” (The Johns Hopkins University, priority 2011, dated 2019).

Data set [1] is described as follows: CD refolding kinetics / triple helix folding rate of CMPs. It counts as physicochemical. As to conditions: after UV exposure; thermal quenching from 80° C. to 25° C. As to the method: Circular dichroism spectroscopy. CD spectra were collected on JASCO 715 spectrophotometer equipped with a JASCO PTC-348 WI temperature controller and quartz cells (0.1 mm path length). CMP solutions (320 μL, 150 μM in 1×PBS) were stored at 4° C. for at least 24 hours before measurement. For photo-decaging, samples were exposed to 365 nm UV light for at least 30 minutes before the 4° C. incubation. The thermal melting studies were performed by measuring the ellipticity at 225 nm with 60° C./hr heating rate. Raw CD signal was normalized to mean residue ellipticity based on the peptide's length and concentration (Biopolymers 95:94-104 (2011)). Melting temperatures (Tm) were determined by fitting the mean residue ellipticity to a two-state model (Org Lett 8:4735-4738 (2006)). […] The CD spectra of intact and MMP-1 cleaved type I collagen (FIG. 12) was measured in 90 μg/mL protein solutions in 20 mM acetic acid buffer at 22° C. The 37° C. thermal stability profile (FIG. 2E, inset) was generated by monitoring the ellipticity at 222 nm immediately after transferring the cuvette to a temperature controlled cuvette holder pre-set to 37° C. The Tm values reported in this study are approximately 10° C. higher than the equilibrium Tm due to high heating rate (60° C./hr) (Biopolymers 73:682-688 (2004)).

The next data set addresses T1, type I collagen films (Rattus norvegicus, UniProt P02454+P02466).
T1 construct: Collagen solution (200 μL, 3.71 mg/mL, type I rat tail, BD Science); purchased BD Science; host or cells: rat tail
Description: Quantification of CF(GPO)9 bound on type I collagen films. In kind it is binding. The conditions noted are these: UV+, collagenase digestion, standard curve. As to the method: Quantification of CF(GPO)9 (SEQ ID NO: 10) bound on type I collagen films. Following photo-induced binding, CMP-bound collagen films (e.g. the UV+ group of FIG. 10A) were digested with 200 μL of collagenase (Sigma, C0130) solutions (1 mg/mL) in TESCA buffer (50 mM TES buffer with 1.36 mM CaCl2, pH 7.4) for 1 hr at 37° C. The digested solutions were directly used for fluorescence measurement (ex: 489 nm, em: 533 nm). For the standard curve, a series of solutions containing known amounts of CF^NB(GPO)9 (SEQ ID NO: 4) (0 to 0.35 nmol) were applied to blank collagen films and air-dried, followed by collagenase digestion and fluorescence measurement as described above. The amount of bound CF(GPO)9 (SEQ ID NO: 10) was determined by comparing the fluorescence intensity of the digested collagen/CMP solutions with the standard curve, and the binding density was determined by dividing the amount bound by the area of the well. The experiment was performed in triplicate.

The target of the next data set is T2, intact type I collagen (Rattus norvegicus, UniProt P02454+P02466).
T2 construct: type I rat tail, BD Science; purchased BD Science; host or cells: rat tail
T2 sequence (P02454 152-1207 limits assumed): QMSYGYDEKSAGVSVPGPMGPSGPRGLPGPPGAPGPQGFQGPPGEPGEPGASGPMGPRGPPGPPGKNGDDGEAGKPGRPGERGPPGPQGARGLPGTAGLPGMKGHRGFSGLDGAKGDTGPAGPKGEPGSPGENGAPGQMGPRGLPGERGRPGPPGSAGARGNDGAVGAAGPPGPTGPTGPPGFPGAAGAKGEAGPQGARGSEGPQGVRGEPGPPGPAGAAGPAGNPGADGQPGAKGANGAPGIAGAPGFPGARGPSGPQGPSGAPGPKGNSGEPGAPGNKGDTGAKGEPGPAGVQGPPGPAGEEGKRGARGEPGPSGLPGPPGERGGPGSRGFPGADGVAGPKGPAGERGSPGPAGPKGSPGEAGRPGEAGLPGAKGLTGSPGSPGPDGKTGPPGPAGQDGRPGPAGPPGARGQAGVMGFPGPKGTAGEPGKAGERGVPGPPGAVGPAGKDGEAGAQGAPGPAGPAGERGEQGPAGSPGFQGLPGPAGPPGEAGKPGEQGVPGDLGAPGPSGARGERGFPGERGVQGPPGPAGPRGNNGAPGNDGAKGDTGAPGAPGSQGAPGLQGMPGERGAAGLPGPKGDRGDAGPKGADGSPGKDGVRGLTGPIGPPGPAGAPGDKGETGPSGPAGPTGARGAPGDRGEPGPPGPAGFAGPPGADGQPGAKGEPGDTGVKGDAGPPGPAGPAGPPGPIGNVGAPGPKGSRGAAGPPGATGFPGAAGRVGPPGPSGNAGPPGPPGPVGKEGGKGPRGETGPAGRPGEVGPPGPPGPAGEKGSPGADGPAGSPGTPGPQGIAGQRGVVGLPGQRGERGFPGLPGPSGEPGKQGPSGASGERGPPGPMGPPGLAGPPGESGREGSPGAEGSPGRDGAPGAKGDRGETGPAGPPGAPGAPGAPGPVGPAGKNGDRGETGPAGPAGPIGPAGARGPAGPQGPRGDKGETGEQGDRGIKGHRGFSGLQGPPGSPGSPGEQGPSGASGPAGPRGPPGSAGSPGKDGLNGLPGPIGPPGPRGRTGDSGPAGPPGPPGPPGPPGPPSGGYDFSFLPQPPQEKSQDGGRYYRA
T2 sequence (P02466 86-1125 limits assumed): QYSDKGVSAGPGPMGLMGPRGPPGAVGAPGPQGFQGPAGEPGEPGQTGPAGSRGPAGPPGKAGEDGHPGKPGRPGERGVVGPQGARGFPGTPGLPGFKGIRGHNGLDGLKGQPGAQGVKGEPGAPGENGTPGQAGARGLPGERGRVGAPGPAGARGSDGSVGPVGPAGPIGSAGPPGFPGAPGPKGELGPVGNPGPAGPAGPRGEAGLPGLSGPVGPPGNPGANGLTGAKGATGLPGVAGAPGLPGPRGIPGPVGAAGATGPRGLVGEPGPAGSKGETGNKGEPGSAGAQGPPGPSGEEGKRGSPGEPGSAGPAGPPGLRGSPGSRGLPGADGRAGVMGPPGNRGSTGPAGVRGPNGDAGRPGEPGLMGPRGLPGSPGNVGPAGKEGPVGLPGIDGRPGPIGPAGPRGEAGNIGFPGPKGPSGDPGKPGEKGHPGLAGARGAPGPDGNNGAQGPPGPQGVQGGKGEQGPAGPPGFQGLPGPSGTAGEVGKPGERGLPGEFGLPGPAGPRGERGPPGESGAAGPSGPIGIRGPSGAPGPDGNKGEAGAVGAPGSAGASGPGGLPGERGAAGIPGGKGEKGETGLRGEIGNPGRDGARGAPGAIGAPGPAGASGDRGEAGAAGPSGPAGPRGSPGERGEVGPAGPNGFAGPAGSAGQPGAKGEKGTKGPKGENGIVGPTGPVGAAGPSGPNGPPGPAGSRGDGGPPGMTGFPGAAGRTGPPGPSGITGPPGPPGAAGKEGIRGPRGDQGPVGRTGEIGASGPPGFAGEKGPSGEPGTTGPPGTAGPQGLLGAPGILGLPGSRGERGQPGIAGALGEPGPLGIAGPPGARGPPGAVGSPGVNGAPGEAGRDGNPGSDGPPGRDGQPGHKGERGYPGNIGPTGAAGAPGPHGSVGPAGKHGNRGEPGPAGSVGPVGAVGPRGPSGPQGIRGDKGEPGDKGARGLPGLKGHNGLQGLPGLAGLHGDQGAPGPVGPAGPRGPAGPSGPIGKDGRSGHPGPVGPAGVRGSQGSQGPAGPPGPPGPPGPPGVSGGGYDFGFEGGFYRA
Nature of the data set: Photo-triggered CMP binding assay on intact non-fibrillar collagen. As to conditions: intact collagens, before and after 37° C. incubation; UV-activated. As to the method: MMP-1 digestion of type I collagen and CMP binding assays. ProMMP-1 (1 μg, EMD Millipore) was activated by p-aminophenylmercuric acetate (1.1 mM) in 132.5 μL of TNC buffer (50 mM Tris-HCl, 0.15 M NaCl, 5 mM CaCl2, 0.02% NaN3, pH 7.5) at 37° C. for 3 hr. Type I collagen (62.6 μg) was subsequently added to the MMP-1 solution and incubated at room temperature for at least 3 days. Digested products were analyzed by SDS-PAGE and circular dichroism spectroscopy (FIG. 12). Wells of nunc black 96-well maxisorp plate were charged with 50 μL of TNC buffer containing 0.5 M glycerol, and 100 μg/mL collagen or MMP-1 cleaved collagen, and incubated at room temperature. The collagen solutions used were either kept at room temperature (22° C.) or incubated at 37° C. for 1 minute just prior to coating. […] Wells were washed extensively with PBSB followed by fluorescence (ex: 489 nm, em: 533 nm) reading with a SpectraMax M-2 microplate reader (Molecular Devices). […] The background fluorescence of empty wells was subtracted from the raw fluorescence data. For estimating the amount of adsorbed protein, un-blocked collagen-coated wells were treated with 100 μM 5-(4,6-dichlorotriazinyl)aminofluorescein (DTAF, 50 μL, in 0.1 M sodium borate buffer) at room temperature for 3 hours, and the fluorescence (ex: 489 nm, em: 533 nm) of the well was measured after washing with 1×PBS. […]

The target of data set [2] is T3, MMP-1 digested type I collagen (Rattus norvegicus, UniProt P02454+P02466).
T3 construct: purchased BD Science (collagen); EMD Millipore (ProMMP-1); host or cells: rat tail; digested in house
T3 sequence (P02454 152-942 limits assumed): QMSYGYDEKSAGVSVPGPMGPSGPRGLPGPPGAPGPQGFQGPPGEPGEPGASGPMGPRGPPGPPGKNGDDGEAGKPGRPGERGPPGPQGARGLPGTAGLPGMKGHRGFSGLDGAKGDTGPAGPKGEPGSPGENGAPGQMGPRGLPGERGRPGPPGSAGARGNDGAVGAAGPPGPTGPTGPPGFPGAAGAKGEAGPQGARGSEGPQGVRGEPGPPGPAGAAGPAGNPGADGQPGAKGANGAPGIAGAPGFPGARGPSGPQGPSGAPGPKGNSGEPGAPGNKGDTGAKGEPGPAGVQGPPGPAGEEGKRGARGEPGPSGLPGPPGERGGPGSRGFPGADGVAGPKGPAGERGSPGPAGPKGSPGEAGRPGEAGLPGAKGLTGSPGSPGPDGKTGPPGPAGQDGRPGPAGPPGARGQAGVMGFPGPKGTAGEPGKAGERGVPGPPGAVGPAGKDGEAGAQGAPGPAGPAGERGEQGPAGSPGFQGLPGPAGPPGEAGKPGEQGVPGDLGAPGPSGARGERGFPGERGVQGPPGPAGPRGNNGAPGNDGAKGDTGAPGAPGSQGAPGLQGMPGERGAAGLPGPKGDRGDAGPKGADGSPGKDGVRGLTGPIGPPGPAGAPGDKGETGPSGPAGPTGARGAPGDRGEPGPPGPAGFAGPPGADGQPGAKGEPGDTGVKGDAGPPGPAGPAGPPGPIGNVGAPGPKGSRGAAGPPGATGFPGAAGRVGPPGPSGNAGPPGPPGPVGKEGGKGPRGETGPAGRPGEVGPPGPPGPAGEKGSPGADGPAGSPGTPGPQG
T3 sequence (P02454 943-1207 limits assumed): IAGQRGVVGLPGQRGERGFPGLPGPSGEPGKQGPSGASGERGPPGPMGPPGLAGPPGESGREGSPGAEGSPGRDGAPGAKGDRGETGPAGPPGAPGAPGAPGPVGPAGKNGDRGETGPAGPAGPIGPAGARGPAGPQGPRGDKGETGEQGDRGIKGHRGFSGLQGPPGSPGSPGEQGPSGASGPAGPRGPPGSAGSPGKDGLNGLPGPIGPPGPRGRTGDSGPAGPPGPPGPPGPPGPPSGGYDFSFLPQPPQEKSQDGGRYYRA
T3 sequence (P02466 86-871 limits assumed): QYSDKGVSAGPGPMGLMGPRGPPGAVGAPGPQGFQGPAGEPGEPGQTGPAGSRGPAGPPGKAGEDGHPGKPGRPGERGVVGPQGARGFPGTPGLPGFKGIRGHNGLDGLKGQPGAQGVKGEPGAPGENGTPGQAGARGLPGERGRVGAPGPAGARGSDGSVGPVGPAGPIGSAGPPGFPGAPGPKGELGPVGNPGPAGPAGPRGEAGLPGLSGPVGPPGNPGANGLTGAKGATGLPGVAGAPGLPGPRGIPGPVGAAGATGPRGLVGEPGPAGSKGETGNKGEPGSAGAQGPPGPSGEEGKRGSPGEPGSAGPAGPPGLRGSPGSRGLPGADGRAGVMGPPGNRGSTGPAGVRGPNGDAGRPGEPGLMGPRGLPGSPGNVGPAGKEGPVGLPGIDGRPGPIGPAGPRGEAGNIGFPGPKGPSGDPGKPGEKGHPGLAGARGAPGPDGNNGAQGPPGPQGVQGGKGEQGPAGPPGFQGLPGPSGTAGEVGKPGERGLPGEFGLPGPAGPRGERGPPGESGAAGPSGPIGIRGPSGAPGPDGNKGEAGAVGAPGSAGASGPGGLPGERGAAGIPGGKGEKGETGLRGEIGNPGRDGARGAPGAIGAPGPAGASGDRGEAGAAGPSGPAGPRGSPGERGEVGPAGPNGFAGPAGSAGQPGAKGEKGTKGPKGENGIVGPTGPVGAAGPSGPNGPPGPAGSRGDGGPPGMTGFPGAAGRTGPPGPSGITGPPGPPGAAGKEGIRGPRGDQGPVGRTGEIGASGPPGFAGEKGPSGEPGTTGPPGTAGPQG
T3 sequence (P02466 872-1125 limits assumed): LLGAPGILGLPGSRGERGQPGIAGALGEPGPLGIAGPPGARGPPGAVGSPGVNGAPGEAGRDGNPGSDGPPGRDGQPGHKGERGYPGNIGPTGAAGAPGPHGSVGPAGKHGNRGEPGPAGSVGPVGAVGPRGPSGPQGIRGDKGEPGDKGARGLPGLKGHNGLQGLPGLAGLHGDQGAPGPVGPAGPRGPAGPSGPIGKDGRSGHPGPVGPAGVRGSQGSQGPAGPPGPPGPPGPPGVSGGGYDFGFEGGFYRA
Nature of the data set: Staining of SDS-PAGE gels using photo-decaged CMP. As to conditions: 6 μM, UV-activation. It counts as binding. As to the method:
Staining of SDS-PAGE gels using photo-decaged CF(GPO)9 (SEQ ID NO: 10). MMP-1 digested type I collagen (3.5 μg) was separated by SDS-PAGE (4-12% polyacrylamide gel) under non-reducing condition, along with unstained protein ladder (Life technologies, LC5801). After washing, the gel was soaked in 6 μM CF^NB(GPO)9 (SEQ ID NO: 4) (or CF^SG9P9O9 (SEQ ID NO: 5)) in 1×PBS solution, followed by exposure to 365 nm UV light for 15 min, and 2.5 hr of staining. The gel was washed with deionized water and scanned using Typhoon 9410 Imager (GE Healthcare) with 488 nm fluorescence channel. Afterwards, the protein gel was stained by coomassie brilliant blue and imaged by Gel Doc EQ system (BioRad).

T1 sequence (P02454 152-1207 limits assumed): as the sequence (P02454 152-1207 limits assumed) above
T1 sequence (P02466 86-1125 limits assumed): as the sequence (P02466 86-1125 limits assumed) above

CF-GGG-(GPO)4^NBGPO(GPO)4 [CF^NB(GPO)9]: the “refolding kinetics (CD 225 nm)” value in data set [1] was “fast refolding kinetics”. Besides, the “density of photo-induced CMP binding to intact collagen” value on type I collagen films is on record as 0.56±0.03 nmol/cm^2. For the same substance, the “level of CMP binding” value on intact type I collagen was “similarly low”. Further, in data set [2], the “staining of MMP-1 digested collagen bands” value was “able to stain the MMP-1 digested collagen bands” and the “staining of protein ladder bands” value was “No other bands from the protein ladder were stained”.
